Data published in patent publication US6313111A, “Substituted 6H-1,3,4-thiadiazine-2-amines, the use thereof as anaesthetising, cardiovascular and hypometabolic agents, and pharmaceutical composition containing them” (priority 1998, dated 2001).
Structures can show the parent of a compound that is named as a salt.

What was measured:
[1] = lethal dose (LD16, LD50) in mice; type: in vivo, mice of the BALB line
[2] = rectal (body) temperature of mice measured with medicinal electrothermometer TREM-1; type: in vivo, mice of the BALB line
Method: In all cases tests were carried out on mice of the BALB line of 3-4 month age. […] In the case of water-soluble compounds, aqueous solutions of the test compounds were injected intraperitoneally (i.p.), while water-insoluble compounds were introduced orally (p.o.).
Rectal temperature changes (absolute magnitues in ° C.) were measured using a medicinal electrothermometer TREM-1 (Table 1). The rate of oxygen consumption was monitored by measuring concentration of oxygen in a closed testing unit with optic-acoustic gas analyser MN 5130. The data on oxygen consumption are given in percents relative to the starting content of oxygen taken as 100%. (Table 2).
Rectal temperature of mice was followed in dynamics after 5, 15, 30, 60, 120, 180, 240, 300, and 360 minutes (Table 3). […] The same decrease in temperature at 190 mg/kg dosage was reached after 15 minutes; in 1.5 hours it reached 22-25° C. and maintained this level over the next 5 hours, that is 13-17° C. below the initial value. After one day, body temperature was restored to the value of 94-96% of initial.

c1ccc(C2=NN=C(N3CCOCC3)SC2)cc1 [Compound 1, 2-Morpholino-5-phenyl-6H-1,3,4-thiadiazine, hydrobromide]
1/2 LD16, calculated ([1]; i.p.): 140 mg/kg | 1/2 LD16, experimental ([1]; i.p.): 190 mg/kg | 1/16 LD16 (lower end of dose range 1/16 LD16 -LD50) ([1]; i.p.): 10 mg/kg | LD50 ([1]; mouse, in vivo, ip, read-out: LD50 (upper end of dose range 1/16 LD16 -LD50)): 365 mg/kg | body temperature (T) ([2]; 10.0 mg/kg i.p., 0 min): 37.5 ± 0.2 °C | body temperature (T) ([2]; 10.0 mg/kg i.p., 10 min): 37.8 ± 0.1 °C | body temperature (T) ([2]; 10.0 mg/kg i.p., 20 min): 37.4 ± 0.2 °C | body temperature (T) ([2]; 10.0 mg/kg i.p., 30 min): 37.3 °C | body temperature (T) ([2]; 10.0 mg/kg i.p., 40 min): 37.5 ± 0.1 °C | body temperature (T) ([2]; 10.0 mg/kg i.p., 60 min): 37.5 ± 0.1 °C | body temperature (T) ([2]; 10.0 mg/kg i.p., 90 min): 37.4 ± 0.2 °C | body temperature (T) ([2]; 10.0 mg/kg i.p., 120 min): 36.9 ± 0.1 °C | body temperature (T) ([2]; 10.0 mg/kg i.p., 180 min): 36.9 ± 0.2 °C | body temperature (T) ([2]; 10.0 mg/kg i.p., 210 min): 36.4 °C | body temperature (T) ([2]; 10.0 mg/kg i.p., 240 min): 36.7 ± 0.2 °C | body temperature (T) ([2]; 10.0 mg/kg i.p., 270 min): 36.7 ± 0.2 °C | body temperature (T) ([2]; 10.0 mg/kg i.p., 300 min): 36.9 ± 0.1 °C | body temperature (T) ([2]; 10.0 mg/kg i.p., 330 min): 36.8 ± 0.2 °C | body temperature (T) ([2]; 10.0 mg/kg i.p., 390 min): 36.7 ± 0.2 °C | body temperature (T) ([2]; 35.0 mg/kg i.p., 0 min): 37.7 ± 0.2 °C | body temperature (T) ([2]; 35.0 mg/kg i.p., 10 min): 37.2 ± 0.2 °C | body temperature (T) ([2]; 35.0 mg/kg i.p., 20 min): 36.6 ± 0.4 °C | body temperature (T) ([2]; 35.0 mg/kg i.p., 30 min): 35.9 °C | body temperature (T) ([2]; 35.0 mg/kg i.p., 40 min): 36.6 ± 0.1 °C | body temperature (T) ([2]; 35.0 mg/kg i.p., 60 min): 37.0 ± 0.3 °C | body temperature (T) ([2]; 35.0 mg/kg i.p., 90 min): 37.3 ± 0.1 °C | body temperature (T) ([2]; 35.0 mg/kg i.p., 120 min): 37.1 ± 0.3 °C | body temperature (T) ([2]; 35.0 mg/kg i.p., 180 min): 36.9 ± 0.2 °C | body temperature (T) ([2]; 35.0 mg/kg i.p., 210 min): 36.6 ± 0.1 °C | body temperature (T) ([2]; 35.0 mg/kg i.p., 240 min): 36.9 ± 0.4 °C | body temperature (T) ([2]; 35.0 mg/kg i.p., 270 min): 36.8 ± 0.1 °C | body temperature (T) ([2]; 35.0 mg/kg i.p., 300 min): 36.9 ± 0.1 °C | body temperature (T) ([2]; 35.0 mg/kg i.p., 330 min): 37.2 ± 0.2 °C | body temperature (T) ([2]; 35.0 mg/kg i.p., 390 min): 37.1 ± 0.1 °C | body temperature (T) ([2]; 70.0 mg/kg i.p., 0 min): 37.5 ± 0.2 °C | body temperature (T) ([2]; 70.0 mg/kg i.p., 10 min): 36.2 ± 0.3 °C | body temperature (T) ([2]; 70.0 mg/kg i.p., 20 min): 35.4 ± 0.5 °C | body temperature (T) ([2]; 70.0 mg/kg i.p., 30 min): 34.5 °C | body temperature (T) ([2]; 70.0 mg/kg i.p., 40 min): 35.0 ± 0.9 °C | body temperature (T) ([2]; 70.0 mg/kg i.p., 60 min): 35.6 ± 0.6 °C | body temperature (T) ([2]; 70.0 mg/kg i.p., 90 min): 36.1 ± 0.2 °C | body temperature (T) ([2]; 70.0 mg/kg i.p., 120 min): 37.0 ± 0.2 °C | body temperature (T) ([2]; 70.0 mg/kg i.p., 180 min): 36.7 ± 0.6 °C | body temperature (T) ([2]; 70.0 mg/kg i.p., 210 min): 36.9 °C | body temperature (T) ([2]; 70.0 mg/kg i.p., 240 min): 37.0 ± 0.1 °C | body temperature (T) ([2]; 70.0 mg/kg i.p., 270 min): 36.6 ± 0.2 °C | body temperature (T) ([2]; 70.0 mg/kg i.p., 300 min): 37.0 ± 0.1 °C | body temperature (T) ([2]; 70.0 mg/kg i.p., 330 min): 37.2 ± 0.1 °C | body temperature (T) ([2]; 70.0 mg/kg i.p., 390 min): 37.1 ± 0.1 °C | time of maximum drop of body temperature ([2]; 140 mg/kg i.p.): 40 to 60 min | body temperature (T) ([2]; 140.0 mg/kg i.p., 0 min): 37.9 ± 0.1 °C | body temperature (T) ([2]; 140.0 mg/kg i.p., 10 min): 34.5 ± 0.2 °C | body temperature (T) ([2]; 140.0 mg/kg i.p., 20 min): 32.6 ± 0.4 °C | body temperature (T) ([2]; 140.0 mg/kg i.p., 30 min): 30.8 °C | body temperature (T) ([2]; 140.0 mg/kg i.p., 40 min): 30.2 ± 0.1 °C | body temperature (T) ([2]; 140.0 mg/kg i.p., 60 min): 30.0 ± 0.1 °C | body temperature (T) ([2]; 140.0 mg/kg i.p., 90 min): 31.5 ± 0.9 °C | body temperature (T) ([2]; 140.0 mg/kg i.p., 120 min): 33.6 ± 0.7 °C | body temperature (T) ([2]; 140.0 mg/kg i.p., 180 min): 35.2 ± 0.5 °C | body temperature (T) ([2]; 140.0 mg/kg i.p., 210 min): 36.1 °C | body temperature (T) ([2]; 140.0 mg/kg i.p., 240 min): 36.5 ± 0.2 °C | body temperature (T) ([2]; 140.0 mg/kg i.p., 270 min): 36.6 ± 0.2 °C | body temperature (T) ([2]; 140.0 mg/kg i.p., 300 min): 36.9 ± 0.1 °C | body temperature (T) ([2]; 140.0 mg/kg i.p., 330 min): 37.6 ± 0.2 °C | body temperature (T) ([2]; 140.0 mg/kg i.p., 390 min): 37.2 ± 0.2 °C | maximum drop of body temperature ([2]; 140 mg/kg i.p., after 40-60 minutes): 7-8 °C | body temperature (T) ([2]; 190 mg/kg (1/2 LD16) i.p., 5 min): 34.9 ± 0.0 °C
